Data as given in the NIST ThermoML archive (doi:10.1021/je034290l).
Numbers after ± are expanded uncertainties.

Legend:
[1] = Liquid; for mass density: 101.33 kPa
[2] = refractive index (Na D-line) (dimensionless); details: 101.33 kPa, Liquid, Standard Abbe refractometry

COC=O [methyl methanoate]
Details	mass density [kg/m3]	refractive index	vapor or sublimation pressure [kPa]
[1], 299.15 K	964.78 ± 0.43	–	–
[1], 301.23 K	–	–	88.7 ± 0.94
[1], 301.42 K	–	–	89.37 ± 0.94
[1], 301.78 K	–	–	90.67 ± 0.95
[1], 302.15 K	–	–	91.98 ± 0.96
[1], 302.53 K	–	–	93.31 ± 0.96
[1], 302.89 K	–	–	94.64 ± 0.97
[1], 303.41 K	–	–	95.98 ± 0.98
[1], 303.77 K	–	–	97.36 ± 0.98
[1], 304.13 K	–	–	98.69 ± 0.99
[1], 304.44 K	–	–	99.97 ± 1
[1], 304.79 K	–	–	101.32 ± 1
[1], 304.83 K	–	–	101.39 ± 1
[1], 305.21 K	–	–	102.89 ± 1
[1], 305.51 K	–	–	104.06 ± 1
[1], 305.85 K	–	–	105.38 ± 1
[1], 306.2 K	–	–	106.72 ± 1
[1], 306.54 K	–	–	108.06 ± 1
[1], 306.84 K	–	–	109.39 ± 1
[1], 307.2 K	–	–	110.77 ± 1.1
[1], 307.54 K	–	–	112.13 ± 1.1
[1], 307.85 K	–	–	113.44 ± 1.1
[1], 308.13 K	–	–	114.75 ± 1.1
[1], 308.47 K	–	–	116.1 ± 1.1
[1], 308.81 K	–	–	117.47 ± 1.1
[1], 309.15 K	–	–	118.77 ± 1.1
[1], 309.43 K	–	–	120.12 ± 1.1
[1], 309.72 K	–	–	121.43 ± 1.1
[1], 310.03 K	–	–	122.74 ± 1.1
[1], 310.33 K	–	–	124.08 ± 1.1
[1], 310.64 K	–	–	125.47 ± 1.1
[1], 310.92 K	–	–	126.77 ± 1.1
[1], 311.19 K	–	–	128.14 ± 1.1
[1], 311.48 K	–	–	129.44 ± 1.1
[1], 311.78 K	–	–	130.75 ± 1.1
[1], 312.06 K	–	–	132.09 ± 1.2
[1], 312.37 K	–	–	133.48 ± 1.2
[1], 312.67 K	–	–	134.81 ± 1.2
[1], 312.9 K	–	–	136.09 ± 1.2
[1], 313.17 K	–	–	137.42 ± 1.2
[1], 313.45 K	–	–	138.75 ± 1.2
[1], 313.74 K	–	–	139.83 ± 1.2
[1], 314.01 K	–	–	141.42 ± 1.2
[1], 314.3 K	–	–	142.78 ± 1.2
[1], 314.37 K	–	–	143.32 ± 1.2
[1], 314.6 K	–	–	144.13 ± 1.2
[1], 314.63 K	–	–	144.65 ± 1.2
[1], 314.88 K	–	–	145.45 ± 1.2
[1], 314.93 K	–	–	145.65 ± 1.2
[1], 315.12 K	–	–	146.74 ± 1.2
[1], 315.18 K	–	–	147.03 ± 1.2
[1], 315.52 K	–	–	148.79 ± 1.2
[1], 315.56 K	–	–	149.41 ± 1.2
[1], 315.77 K	–	–	150.23 ± 1.2
[1], 316 K	–	–	151.48 ± 1.2
[1], 316.06 K	–	–	152.08 ± 1.3
[1], 316.23 K	–	–	152.97 ± 1.3
[1], 316.47 K	–	–	154.04 ± 1.3
[1], 316.57 K	–	–	154.75 ± 1.3
[1], 316.71 K	–	–	155.22 ± 1.3
[1], 316.95 K	–	–	156.54 ± 1.3
[1], 317.05 K	–	–	157.42 ± 1.3
[1], 317.17 K	–	–	157.73 ± 1.3
[1], 317.36 K	–	–	158.92 ± 1.3
[1], 317.4 K	–	–	159.14 ± 1.3
[1], 317.64 K	–	–	160.45 ± 1.3
[1], 317.88 K	–	–	161.72 ± 1.3
[1], 318 K	–	–	162.65 ± 1.3
[1], 318.34 K	–	–	164.18 ± 1.3
[1], 318.51 K	–	–	165.32 ± 1.3
[1], 318.68 K	–	–	166.44 ± 1.3
[1], 319.07 K	–	–	168.3 ± 1.3
[1], 319.37 K	–	–	170 ± 1.4
[1], 319.45 K	–	–	170.76 ± 1.4
[1], 319.67 K	–	–	171.98 ± 1.4
[1], 319.93 K	–	–	173.32 ± 1.4
[1], 320.22 K	–	–	174.76 ± 1.4
[1], 320.34 K	–	–	175.82 ± 1.4
[1], 320.65 K	–	–	177.38 ± 1.4
[1], 320.78 K	–	–	178.57 ± 1.4
[1], 321.04 K	–	–	180.01 ± 1.4
[1], 321.34 K	–	–	181.7 ± 1.4
[1], 321.46 K	–	–	182.37 ± 1.4
[1], 321.72 K	–	–	184.02 ± 1.4
[1], 321.94 K	–	–	185.46 ± 1.4
[1], 322.2 K	–	–	186.83 ± 1.4
[2], 299.15 K	–	1.3402 ± 0.0007	–

CCC(=O)OC [methyl propanoate]
Details	mass density [kg/m3]	refractive index	vapor or sublimation pressure [kPa]
[1], 318.15 K	884.3 ± 0.51	–	–
[1], 325.88 K	–	–	40.08 ± 0.7
[1], 327.07 K	–	–	42.57 ± 0.71
[1], 328.03 K	–	–	44.13 ± 0.72
[1], 329 K	–	–	45.29 ± 0.72
[1], 329.68 K	–	–	46.72 ± 0.73
[1], 330.24 K	–	–	47.97 ± 0.74
[1], 330.7 K	–	–	49.34 ± 0.74
[1], 332 K	–	–	50.58 ± 0.75
[1], 332.74 K	–	–	51.89 ± 0.75
[1], 333.19 K	–	–	53.37 ± 0.76
[1], 334.04 K	–	–	54.63 ± 0.77
[1], 334.49 K	–	–	55.93 ± 0.77
[1], 335.63 K	–	–	57.49 ± 0.78
[1], 335.97 K	–	–	58.57 ± 0.79
[1], 336.7 K	–	–	60.05 ± 0.8
[1], 337.5 K	–	–	61.5 ± 0.8
[1], 338.06 K	–	–	62.73 ± 0.81
[1], 338.52 K	–	–	64.17 ± 0.82
[1], 339.43 K	–	–	66.58 ± 0.83
[1], 339.71 K	–	–	67.89 ± 0.83
[1], 340.73 K	–	–	69.17 ± 0.84
[1], 341.07 K	–	–	70.53 ± 0.85
[1], 341.52 K	–	–	71.89 ± 0.86
[1], 341.72 K	–	–	72.42 ± 0.86
[1], 342.35 K	–	–	73.37 ± 0.86
[1], 342.6 K	–	–	75.37 ± 0.87
[1], 342.88 K	–	–	75.83 ± 0.87
[1], 343.25 K	–	–	75.91 ± 0.88
[1], 343.95 K	–	–	77.99 ± 0.89
[1], 344.15 K	–	–	78.43 ± 0.89
[1], 344.25 K	–	–	78.74 ± 0.89
[1], 344.75 K	–	–	79.89 ± 0.9
[1], 345.4 K	–	–	82.35 ± 0.91
[1], 345.65 K	–	–	82.59 ± 0.91
[1], 346.32 K	–	–	84.18 ± 0.92
[1], 346.57 K	–	–	85.43 ± 0.93
[1], 346.65 K	–	–	86.74 ± 0.94
[1], 347.23 K	–	–	87.87 ± 0.93
[1], 347.4 K	–	–	88.1 ± 0.94
[1], 348.15 K	–	–	90.74 ± 0.95
[1], 348.73 K	–	–	91.95 ± 0.96
[1], 348.98 K	–	–	93.23 ± 0.96
[1], 349.23 K	–	–	94.6 ± 0.97
[1], 349.73 K	–	–	96.03 ± 0.98
[1], 350.23 K	–	–	97.26 ± 0.98
[1], 350.59 K	–	–	98.7 ± 0.99
[1], 350.99 K	–	–	100 ± 1
[1], 351.65 K	–	–	101.32 ± 1
[1], 352.23 K	–	–	102.75 ± 1
[1], 352.4 K	–	–	103.87 ± 1
[1], 352.82 K	–	–	105.43 ± 1
[1], 352.9 K	–	–	106.58 ± 1
[1], 353.73 K	–	–	107.82 ± 1.1
[1], 353.82 K	–	–	109.39 ± 1
[1], 354.15 K	–	–	110.78 ± 1.1
[1], 354.57 K	–	–	112.07 ± 1.1
[1], 354.82 K	–	–	113.15 ± 1.1
[1], 355.65 K	–	–	114.82 ± 1.1
[1], 355.74 K	–	–	115.9 ± 1.1
[1], 355.82 K	–	–	117.13 ± 1.1
[1], 356.32 K	–	–	118.57 ± 1.1
[1], 356.9 K	–	–	120.15 ± 1.1
[1], 357.15 K	–	–	121.17 ± 1.1
[1], 357.39 K	–	–	122.81 ± 1.1
[1], 357.9 K	–	–	123.81 ± 1.1
[1], 358.24 K	–	–	124.65 ± 1.1
[1], 358.48 K	–	–	126.73 ± 1.1
[1], 358.65 K	–	–	127.87 ± 1.1
[1], 358.98 K	–	–	129.37 ± 1.1
[1], 359.32 K	–	–	130.43 ± 1.1
[1], 359.48 K	–	–	130.89 ± 1.1
[1], 359.98 K	–	–	133.25 ± 1.2
[1], 360.4 K	–	–	134.57 ± 1.2
[1], 360.57 K	–	–	135.81 ± 1.2
[1], 361.08 K	–	–	137.35 ± 1.2
[1], 361.4 K	–	–	138.56 ± 1.2
[1], 361.73 K	–	–	140 ± 1.2
[1], 361.9 K	–	–	141.21 ± 1.2
[1], 362.44 K	–	–	142.57 ± 1.2
[1], 362.57 K	–	–	144.11 ± 1.2
[1], 363.07 K	–	–	145.35 ± 1.2
[1], 363.4 K	–	–	146.48 ± 1.2
[1], 363.73 K	–	–	148.09 ± 1.2
[1], 363.91 K	–	–	149.39 ± 1.2
[1], 364.4 K	–	–	151.04 ± 1.2
[1], 364.57 K	–	–	152.48 ± 1.3
[1], 364.9 K	–	–	153.26 ± 1.3
[1], 364.99 K	–	–	154.82 ± 1.3
[1], 365.38 K	–	–	156.06 ± 1.3
[1], 365.48 K	–	–	156.17 ± 1.3
[1], 365.82 K	–	–	158.49 ± 1.3
[1], 365.9 K	–	–	159.73 ± 1.3
[1], 366.15 K	–	–	160.57 ± 1.3
[1], 366.57 K	–	–	162.57 ± 1.3
[1], 366.65 K	–	–	163.38 ± 1.3
[1], 367.15 K	–	–	165.17 ± 1.3
[1], 367.4 K	–	–	166.74 ± 1.3
[1], 367.82 K	–	–	167.89 ± 1.3
[2], 318.15 K	–	1.3641 ± 0.0007	–
